Key:
[1] = biological target: human inducible NO-synthase (Homo sapiens, UniProt P35228); assay: Measurement of inducible NO-synthase activity ([3H]arginine conversion); assay type: biochemical; settings: crude cytosolic fraction containing human inducible NO-synthase; 0.1 μM arginine; 45 to 60 min at 37° C; read-out: Inhibition of iNOS activity [measured as −logIC50 (mol/l)] (converted)
Experimental: Measurement of Inducible NO-Synthase Activity
The assay is performed in 96-well microtiter F-plates (Greiner, Frickenhausen, FRG) in a total volume of 100 μl in the presence of 100 nM calmodulin, 226 μM CaCl2, 477 μM MgCl2, 5 μM flavin-adenine-dinucleotide (FAD), 5 μM flavin mononucleotide (FMN), 0.1 mM NADPH, 7 mM glutathione, 10 μM BH4 and 100 mM HEPES pH 7.2. Arginine concentrations are 0.1 μM for enzyme inhibition experiments. 150000 dpm of [^3H]arginine are added to the assay mixture. Enzyme reaction is started by the addition of 4 μg of a crude cytosolic fraction containing human inducible NO-synthase and the reaction mixture is incubated for 45 to 60 min at 37° C. Enzyme reaction is stopped by adding 10 μl of 2M MES-buffer pH 5,0. 50 μl of the incubation mixture are transferred into a MADP N65 filtration microtiter plate (Millipore, Eschborn, FRG) containing already 50 μl of AG-50W-X8 cation exchange resin (Biorad, München, FRG). The resin in the Na loaded form is preequilibrated in water and 70 μl (corresponding to 50 μl dry beads) are pipetted under heavy stirring with a 8 channel pipette into the filtration plate. After pipetting 50 μl of the enzyme reaction mixture onto the filtration plates, the plates are placed on a filtration manifold (Porvair, Shepperton, UK) and the flow through is collected in Pico scintillation plates (Packard, Meriden, Conn.). The resin in the filtration plates is washed with 75 μl of water (1×50 μl and 1×25 μl) which is also collected in the same plate as the sample. The total flow through of 125 μl is mixed with 175 μl of Microscint-40 scintillation cocktail (Packard) and the scintillation plate is sealed with TopSeal P-foil (Packard). Scintillation plates are counted in a szintillation counter.
For the measurement of inducible NO-synthase-inhibiting potencies of compounds increasing concentrations of inhibitors were included into the incubation mixture. IC50-values were calculated from the percent inhibition at given concentrations by nonlinear least square fitting.
The inhibitory values determined for the compounds according to the invention follow from the following table A, in which the compound numbers correspond to the example numbers.

SMILES | melting point | IC50 [1]
COc1ccnc(CCc2nc3cc(-c4ccc(S(=O)(=O)N(C)C)cc4)cnc3[nH]2)c1 [compound 1, 4-{2-[2-(4-Methoxypyridin-2-yl)ethyl]-3H-imidazo[4,5-b]pyridin-6-yl}-N,N-dimethyl-benzenesulfonamide] | 217 to 218 °C | 0.0148 µM
CCN(CC)S(=O)(=O)c1ccc(-c2cnc3[nH]c(CCc4cc(OC)ccn4)nc3c2)cc1 [compound 2, N,N-Diethyl-4-{2-[2-(4-methoxypyridin-2-yl)ethyl]-3H-imidazo-[4,5-b]pyridin-6-yl}benzenesulfonamide] | 127 to 129 °C | 0.0355 µM
CNS(=O)(=O)c1ccc(-c2cnc3[nH]c(CCc4cc(OC)ccn4)nc3c2)cc1 [compound 3, 4-{2-[2-(4-Methoxypyridin-2-yl)ethyl]-3H-imidazo[4,5-b]pyridin-6-yl}-N-methyl-benzenesulfonamide] | 225 to 227 °C | 0.0138 µM
COc1ccnc(CCc2nc3cc(-c4ccc(S(N)(=O)=O)cc4)cnc3[nH]2)c1 [compound 4, 4-{2-[2-(4-Methoxypyridin-2-yl)ethyl]-3H-imidazo[4,5-b]pyridin-6-yl}-benzenesulfonamide] | 216 to 218 °C | 0.0148 µM
CCNS(=O)(=O)c1ccc(-c2cnc3[nH]c(CCc4cc(OC)ccn4)nc3c2)cc1 [compound 5, N-Ethyl-4-{2-[2-(4-methoxypyridin-2-yl)ethyl]-3H-imidazo-[4,5-b]pyridin-6-yl}benzenesulfonamide] | 214 to 216 °C | 0.024 µM
COc1ccnc(CCc2nc3cc(-c4ccc(S(=O)(=O)N(C)C)c(F)c4)cnc3[nH]2)c1 [compound 6, 2-Fluoro-4-{2-[2-(4-methoxypyridin-2-yl)ethyl]-3H-imidazo[4,5-b]pyridin-6-yl}-N,N-dimethyl-benzenesulfonamide] | 211 to 212 °C | 0.0214 µM

From patent publication US7468377B2, “Imidazopyridine-derivatives as inductible no-synthase inhibitors” (Altana Pharma AG, priority 2003, dated 2008)
